Laboratory results reported in patent US11111251B2, “Positive allosteric modulators of the muscarinic acetylcholine receptor M1” (Vanderbilt University, priority 2016, dated 2021).
Read-outs that look alike come from different tables or passages of the source.

Biological target: T1, human mAChR M1 (Homo sapiens, UniProt P11229)
T1 sequence (P11229 1-460): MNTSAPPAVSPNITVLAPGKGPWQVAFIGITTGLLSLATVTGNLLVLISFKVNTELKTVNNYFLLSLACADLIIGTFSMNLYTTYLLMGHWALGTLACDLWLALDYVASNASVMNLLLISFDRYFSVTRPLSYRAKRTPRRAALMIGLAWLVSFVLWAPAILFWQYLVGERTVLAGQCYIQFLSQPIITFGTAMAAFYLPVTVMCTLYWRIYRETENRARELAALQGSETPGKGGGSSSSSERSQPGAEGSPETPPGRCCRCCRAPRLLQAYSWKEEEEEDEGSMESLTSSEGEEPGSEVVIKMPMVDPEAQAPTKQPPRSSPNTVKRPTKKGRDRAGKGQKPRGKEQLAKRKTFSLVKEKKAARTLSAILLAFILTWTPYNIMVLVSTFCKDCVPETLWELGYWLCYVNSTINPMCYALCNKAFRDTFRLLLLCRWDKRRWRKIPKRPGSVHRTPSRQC
Experiment: mAChR M1 cell-based functional assay: calcium mobilization, positive allosteric modulator mode (increase in EC20 acetylcholine response)
Details: for EC50: read-out: Human M1 EC50; for Emax: read-out: Human M1 Emax (%)
Description: a. Cell Lines Expressing Muscarinic Acetylcholine Receptors
Chinese hamster ovary (CHO-K1) cells stably expressing rat (r)M1 were purchased from the American Type Culture Collection and cultured according to their indicated protocol. CHO cells stably expressing human (h)M2, hM3, and hM5 were described previously (Levey, et al., 1991); hMi and hM4 cDNAs were purchased from Missouri S&T cDNA Resource; rM4 cDNA was provided by T. I. Bonner (National Institutes of Health, Bethesda, Md.). rM2 and rM3 were cloned from a rat brain cDNA library and sequence verified. hMi, rM2, rM3, hM4, and rM4 cDNAs were used to stably transfect CHO-K1 cells purchased from the American Type Culture Collection using Lipofectamine2000. To make stable rM2, hM2, rM3, hM4, and rM4 cell lines for use in calcium mobilization assays, these cells also were stably transfected with a chimeric G-protein (Gqi5) (provided by B. R. Conklin, University of California, San Francisco) using Lipofectamine 2000. rMi, hMi, rM3, hM3, rM5, and hM5 cells were grown in Ham's F-12 medium containing 10% heat-inactivated fetal bovine serum (FBS), 20 mM HEPES, and 50 μg/mL G418 sulfate. rM2-Gqi5, hM2-Gqi5, and hM4-Gqi5 cells were grown in the same medium also containing 500 μg/mL Hygromycin B. Stable rM4-Gqi5 cells were grown in DMEM containing 10% heat-inactivated FBS, 20 mM HEPES, 400 μg/mL G418 sulfate, and 500 μg/mL Hygromycin B.
b. Cell-Based Functional Assay of Muscarinic Acetylcholine Receptor Activity
For high throughput measurement of agonist-evoked increases in intracellular calcium, CHO-K1 cells stably expressing muscarinic receptors were plated in growth medium lacking G418 and hygromycin at 15,000 cells/20 μL/well in Greiner 384-well black-walled, tissue culture (TC)-treated, clear-bottom plates (VWR). Cells were incubated overnight at 37° C. and 5% CO2. The next day, cells were washed using an ELX 405 (BioTek) with four washes (80 μL) of assay buffer then aspirated to 20 μL. Next, 20 μL of 16 μM Fluo-4/acetoxymethyl ester (Invitrogen, Carlsbad, Calif.) prepared as a 2.3 mM stock in DMSO and mixed in a 1:1 ratio with 10% (w/v) Pluronic F-127 and diluted in assay buffer was added to the wells and the cell plates were incubated for 50 min at 37° C. and 5% CO2. Dye was removed by washing with the ELX 405 (four […], washes of assay buffer) then aspirated to 20 μL. Compound master plates were formatted in an 11 point CRC format (1:3 dilutions) in 100% DMSO with a starting concentration of 10 mM using the BRAVO liquid handler (Agilent). Test compound CRCs were then transferred to daughter plates (240 nL) using the Echo acoustic plate reformatter (Labcyte, Sunnyvale, Calif.) and then diluted into assay buffer (40 μL) to a 2× stock using a Thermo Fisher Combi (Thermo Fisher Scientific, Waltham, Mass.).
Calcium flux was measured using the Functional Drug Screening System (FDSS) 6000 (Hamamatsu Corporation, Tokyo, Japan) as an increase in the fluorescent static ratio. Compounds were applied to cells (20 μL, 2×) using the automated system of the FDSS 6000 at 4 s into the 300 s protocol and the data were collected at 1 Hz. At 144 s into the 300s protocol, 10 μL of an EC20 concentration of the muscarinic receptor agonist acetylcholine was added (5×), followed by the addition of 12 μL an EC80 concentration of acetylcholine at the 230 s time point (5×). Agonist activity was analyzed as a concentration-dependent increase in calcium mobilization upon compound addition. Positive allosteric modulator activity was analyzed as a concentration-dependent increase in the EC20 acetylcholine response. Antagonist activity was analyzed as a concentration-dependent decrease in the EC80 acetylcholine response. Concentration-response curves were generated using a four-parameter logistical equation in XLfit curve fitting software (IDBS, Bridgewater, N.J.) for Excel (Microsoft, Redmond, Wash.) or Prism (GraphPad Software, Inc., San Diego, Calif.).

Cn1cc(-c2cc(F)c(Cc3cc(C(=O)N[C@H]4CCCCC[C@@H]4O)nc4ccsc34)c(F)c2)cn1 [Compound 61, 7-[[2,6-difluoro-4-(1-methylpyrazol-4-yl)phenyl]methyl]-N-[(1S,2S)-2-hydroxycycloheptyl]thieno[3,2-b]pyridine-5-carboxamide]
EC50 (Table 2, human M1): > 10 µM
Emax (Table 2, human M1): 64.8%

Cn1cc(-c2ccc(Cc3cc(C(=O)N[C@H]4COCC[C@@H]4O)nc4ccsc34)cn2)cn1 [Compound 62, N-[(3S,4S)-4-hydroxytetrahydropyran-3-yl]-7-[[6-(1-methylpyrazol-4-yl)-3-pyridyl]methyl]thieno[3,2-b]pyridine-5-carboxamide]
EC50 (Table 2, human M1): > 10 µM
Emax (Table 2, human M1): 41.2%

Cc1ccc(Cc2cc(C(=O)NC34CC5CC(CC(O)(C5)C3)C4)nc3ccsc23)cn1 [Compound 63, N-(3-hydroxy-1-adamantyl)-7-[(6-methyl-3-pyridyl)methyl]thieno[3,2-b]pyridine-5-carboxamide]
EC50 (Table 2, human M1): 3.99 µM
Emax (Table 2, human M1): 87%

Cc1ccc(Cc2cc(C(=O)NC3C4CC5C[C@H]3CC(O)(C5)C4)nc3ccsc23)cn1 (stereo partly drawn) [Compound 64, N-[(1S)-5-hydroxy-2-adamantyl]-7-[(6-methyl-3-pyridyl)methyl]thieno[3,2-b]pyridine-5-carboxamide]
EC50 (Table 2, human M1): 0.962 µM
Emax (Table 2, human M1): 70.7%

Cc1ccc(Cc2cc(C(=O)Nc3n[nH]c4ccccc34)nc3ccsc23)cn1 [Compound 65, N-(1H-indazol-3-yl)-7-[(6-methyl-3-pyridyl)methyl]thieno[3,2-b]pyridine-5-carboxamide]
EC50 (Table 2, human M1): 1.72 µM
Emax (Table 2, human M1): 37.3%

Cc1ccc(Cc2cc(C(=O)NC3CCCNC3=O)nc3ccsc23)cn1 (centres unmarked) [Compound 66, 7-[(6-methyl-3-pyridyl)methyl]-N-(2-oxo-3-piperidyl)thieno[3,2-b]pyridine-5-carboxamide]
EC50 (Table 2, human M1): 7.41 µM
Emax (Table 2, human M1): 93%

Cc1ccc(Cc2cc(C(=O)NC3CCCCNC3=O)nc3ccsc23)cn1 (centres unmarked) [Compound 67, 7-[(6-methyl-3-pyridyl)methyl]-N-(2-oxoazepan-3-yl)thieno[3,2-b]pyridine-5-carboxamide]
EC50 (Table 2, human M1): 2.78 µM
Emax (Table 2, human M1): 92.7%

Cc1ccc(Cc2cc(C(=O)NC3C(=O)Nc4ccccc43)nc3ccsc23)cn1 (centres unmarked) [Compound 68, 7-[(6-methyl-3-pyridyl)methyl]-N-(2-oxoindolin-3-yl)thieno[3,2-b]pyridine-5-carboxamide]
EC50 (Table 2, human M1): 9.7 µM
Emax (Table 2, human M1): 22.8%

Cc1ccc(Cc2cc(C(=O)Nc3cc(C)n[nH]3)nc3ccsc23)cn1 [Compound 69, N-(3-methyl-1H-pyrazol-5-yl)-7-[(6-methyl-3-pyridyl)methyl]thieno[3,2-b]pyridine-5-carboxamide]
EC50 (Table 2, human M1): 6.82 µM
Emax (Table 2, human M1): 80.3%

Cc1ccc(Cc2cc(C(=O)Nc3c[nH]cn3)nc3ccsc23)cn1 [Compound 70, N-(1H-imidazol-4-yl)-7-[(6-methyl-3-pyridyl)methyl]thieno[3,2-b]pyridine-5-carboxamide]
EC50 (Table 2, human M1): > 10 µM
Emax (Table 2, human M1): 62.4%

O=C(N[C@@H]1CCC[C@H]1O)c1cc(Cc2ccc(-n3cccn3)cc2)c2sccc2n1 [Compound 71, N-[(1R,2R)-2-hydroxycyclopentyl]-7-[(4-pyrazol-1-ylphenyl)methyl]thieno[3,2-b]pyridine-5-carboxamide]
EC50 (Table 2, human M1): 0.0803 µM
Emax (Table 2, human M1): 92.7%

O=C(NC1CCCCC1)c1cc(Cc2ccc(-n3cccn3)cc2)c2sccc2n1 [Compound 72, N-cyclohexyl-7-[(4-pyrazol-1-ylphenyl)methyl]thieno[3,2-b]pyridine-5-carboxamide]
EC50 (Table 2, human M1): > 10 µM
Emax (Table 2, human M1): 84.5%

O=C(N[C@@H]1CCCC[C@H]1O)c1cc(Cc2ccc(-n3cccn3)cc2)c2sccc2n1 [Compound 73, N-[(1R,2R)-2-hydroxycyclohexyl]-7-[(4-pyrazol-1-ylphenyl)methyl]thieno[3,2-b]pyridine-5-carboxamide]
EC50 (Table 2, human M1): 0.0501 µM
Emax (Table 2, human M1): 87.9%

O=C(N[C@@H]1CCOC[C@H]1O)c1cc(Cc2ccc(-n3cccn3)cc2)c2sccc2n1 [Compound 74, N-[(3S,4R)-3-hydroxytetrahydropyran-4-yl]-7-[(4-pyrazol-1-ylphenyl)methyl]thieno[3,2-b]pyridine-5-carboxamide]
EC50 (Table 2, human M1): 0.0122 µM
Emax (Table 2, human M1): 84.9%

O=C(N[C@@H]1COCC[C@H]1O)c1cc(Cc2ccc(-n3cccn3)cc2)c2sccc2n1 [Compound 75, N-[(3R,4R)-4-hydroxytetrahydropyran-3-yl]-7-[(4-pyrazol-1-ylphenyl)methyl]thieno[3,2-b]pyridine-5-carboxamide]
EC50 (Table 2, human M1): 0.0221 µM
Emax (Table 2, human M1): 90.1%

CO[C@@H]1CCCC[C@H]1NC(=O)c1cc(Cc2ccc(-n3cccn3)cc2)c2sccc2n1 [Compound 76, N-[(1R,2R)-2-methoxycyclohexyl]-7-[(4-pyrazol-1-ylphenyl)methyl]thieno[3,2-b]pyridine-5-carboxamide]
EC50 (Table 2, human M1): 0.739 µM
Emax (Table 2, human M1): 67.6%

O=C(N[C@@H]1CCCCC[C@H]1O)c1cc(Cc2ccc(-n3cccn3)cc2)c2sccc2n1 [Compound 77, N-[(1R,2R)-2-hydroxycycloheptyl]-7-[(4-pyrazol-1-ylphenyl)methyl]thieno[3,2-b]pyridine-5-carboxamide]
EC50 (Table 2, human M1): 0.136 µM
Emax (Table 2, human M1): 84.8%

O=C(NC1CCCNC1=O)c1cc(Cc2ccc(-n3cccn3)cc2)c2sccc2n1 (centres unmarked) [Compound 78, N-(2-oxo-3-piperidyl)-7-[(4-pyrazol-1-ylphenyl)methyl]thieno[3,2-b]pyridine-5-carboxamide]
EC50 (Table 2, human M1): 0.31 µM
Emax (Table 2, human M1): 87.2%

O=C(NC1CCCCNC1=O)c1cc(Cc2ccc(-n3cccn3)cc2)c2sccc2n1 (centres unmarked) [Compound 79, N-(2-oxoazepan-3-yl)-7-[(4-pyrazol-1-ylphenyl)methyl]thieno[3,2-b]pyridine-5-carboxamide]
EC50 (Table 2, human M1): 0.397 µM
Emax (Table 2, human M1): 70.5%

O=C(c1cc(Cc2ccc(-n3cccn3)cc2)c2sccc2n1)N1[C@@H]2CC[C@H]1CC(O)C2 (stereo partly drawn) [Compound 80, [(1S,5R)-3-hydroxy-8-azabicyclop[3.2.1]octan-8-yl]-[7-[(4-pyrazol-1-ylphenyl)methyl]thieno[3,2-b]pyridin-5-yl]methanone]
EC50 (Table 2, human M1): > 10 µM
Emax: 65.9%

O=C(c1cc(Cc2ccc(-n3cccn3)cc2)c2sccc2n1)N1CCC[C@@H](O)C1 [Compound 81, [(3R)-3-hydroxy-1-piperidyl]-[7-[(4-pyrazol-1-ylphenyl)methyl]thieno[3,2-b]pyridin-5-yl]methanone]
EC50 (Table 2, human M1): > 10 µM
Emax (Table 2, human M1): 33%

CC1(O)CCN(C(=O)c2cc(Cc3ccc(-n4cccn4)cc3)c3sccc3n2)CC1 [Compound 82, (4-hydroxy-4-methyl-1-piperidyl)-[7-[(4-pyrazol-1-ylphenyl)methyl]thieno[3,2-b]pyridin-5-yl]methanone]
EC50 (Table 2, human M1): > 10 µM
Emax (Table 2, human M1): 70.4%
